Tests used:
[1] = biological target: human STING ligand-binding domain (hSTING-LBD) (Homo sapiens, UniProt Q86WV6); assay: BLI Kd
[2] = biological target: T1, mouse STING ligand-binding domain (mSTING-LBD) (Mus musculus, UniProt Q3TBT3); assay: BLI
T1 sequence (Q3TBT3 146-370): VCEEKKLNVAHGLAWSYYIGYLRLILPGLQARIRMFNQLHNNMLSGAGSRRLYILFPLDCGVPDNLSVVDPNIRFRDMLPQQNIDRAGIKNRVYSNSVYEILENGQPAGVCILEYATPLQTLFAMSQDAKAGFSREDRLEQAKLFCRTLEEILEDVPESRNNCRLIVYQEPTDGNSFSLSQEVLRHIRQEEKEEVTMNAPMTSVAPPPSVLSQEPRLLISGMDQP

human STING ligand-binding domain (hSTING-LBD), sequence (Q86WV6 155-343): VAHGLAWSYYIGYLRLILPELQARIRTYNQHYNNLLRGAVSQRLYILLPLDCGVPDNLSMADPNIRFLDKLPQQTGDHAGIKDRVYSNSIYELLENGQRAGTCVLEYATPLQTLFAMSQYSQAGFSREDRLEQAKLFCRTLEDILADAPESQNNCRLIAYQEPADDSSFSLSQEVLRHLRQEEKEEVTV

Compound: C=CCc1ccc(O)c(-c2ccc(O)c(CC=C)c2)c1 [honokiol]
- Kd [1]: 12.9 ± 0.4 µM
- Kd [2]: 17 ± 0.5 µM

Source: publication PMC12296492 (Cell Reports Methods, 2025)
